Results reported in the supplement of paper PMC11061612.

What was measured:
Capivasertib = compound: C1CN(CCC1(C(=O)N[C@@H](CCO)C2=CC=C(C=C2)Cl)N)C3=NC=NC4=C3C=CN4 [Capivasertib]; conditions: max 10 µM
Outline: (§1)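 Cancer cell lines were plated in 1536-well plates in 7.5 μl of DMEM/F12 or RPMI with 10% FBS and kept 24 hours at 37°C and 5% CO2 before 72 hours of dosing, with final DMSO typically 0.2%. CellTiter-Glo 2.0 luminescence measured viability, scaled between blank-well and DMSO-well means. Dose responses were fitted to a two-parameter logistic curve with a non-linear mixed effects model. This fit gives the single-agent IC50.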

AZD1775 = compound: C=CCn1c(=O)c2cnc(Nc3ccc(N4CCN(C)CC4)cc3)nc2n1-c1cccc(C(C)(C)O)n1 [AZD1775]; conditions: max 3 µM
Outline: as §1

Trametinib = compound: CC(=O)Nc1cccc(-n2c(=O)n(C3CC3)c(=O)c3c(Nc4ccc(I)cc4F)n(C)c(=O)c(C)c32)c1 [Trametinib]; conditions: max 1 µM
Outline: as §1

Palbociclib = compound: CC(=O)c1c(C)c2cnc(Nc3ccc(N4CCNCC4)cn3)nc2n(C2CCCC2)c1=O [Palbociclib]; conditions: max 10 µM
Outline: as §1

AZD1390 = compound: CC(C)n1c(=O)n(C)c2cnc3cc(F)c(-c4ccc(OCCCN5CCCCC5)nc4)cc3c21 [AZD1390]; conditions: max 0.3 µM
Outline: as §1

Venetoclax = compound: CC1(C)CCC(CN2CCN(c3ccc(C(=O)NS(=O)(=O)c4ccc(NCC5CCOCC5)c([N+](=O)[O-])c4)c(Oc4cnc5[nH]ccc5c4)c3)CC2)=C(c2ccc(Cl)cc2)C1 [Venetoclax]; conditions: max 1 µM
Outline: as §1

Dasatinib = compound: CC1=C(C(=CC=C1)Cl)NC(=O)C2=CN=C(S2)NC3=CC(=NC(=N3)C)N4CCN(CC4)CCO [Dasatinib]; conditions: max 2 µM
Outline: as §1

SG3199 = compound: CC1=CN2[C@@H](C1)C=NC3=CC(=C(C=C3C2=O)OC)OCCCCCOC4=C(C=C5C(=C4)N=C[C@@H]6CC(=CN6C5=O)C)OC [SG3199]; conditions: max 0.001 µM
Outline: as §1

AZD2811 = compound: CCN(CCO)CCCOc1ccc2c(Nc3cc(CC(=O)Nc4cccc(F)c4)[nH]n3)ncnc2c1 [AZD2811]; conditions: max 1 µM
Outline: as §1

SN-38 = compound: CCc1c2c(nc3ccc(O)cc13)-c1cc3c(c(=O)n1C2)COC(=O)[C@]3(O)CC [SN-38]; conditions: max 0.3 µM
Outline: as §1

AZD0156 = compound: CN(C)CCCOc1ccc(-c2ccc3ncc4c(c3c2)n(C2CCOCC2)c(=O)n4C)cn1 [AZD0156]; conditions: max 3 µM
Outline: as §1

AZD4320 = compound: CN(CC[C@H](CSC1=CC=CC=C1)NC2=C(C=C(C=C2)S(=O)(=O)NC(=O)C3=CC=C(C=C3)N4CCC(CC4)[C@H](C5=CC=CC=C5C6=CC=C(C=C6)Cl)O)S(=O)(=O)C(F)(F)F)CCO [AZD4320]; conditions: max 1 µM
Outline: as §1

Alisertib = compound: COc1cc(Nc2ncc3c(n2)-c2ccc(Cl)cc2C(c2c(F)cccc2OC)=NC3)ccc1C(=O)O [Alisertib]; conditions: max 10 µM
Outline: as §1

Gefitinib = compound: COc1cc2ncnc(Nc3ccc(F)c(Cl)c3)c2cc1OCCCN1CCOCC1 [Gefitinib]; conditions: max 10 µM
Outline: as §1

Prexasertib = compound: COc1cccc(OCCCN)c1-c1cc(Nc2cnc(C#N)cn2)n[nH]1 [Prexasertib]; conditions: max 1 µM
Outline: as §1

Doxorubicin = compound: COc1cccc2c1C(=O)c1c(O)c3c(c(O)c1C2=O)C[C@@](O)(C(=O)CO)C[C@@H]3O[C@H]1C[C@H](N)[C@H](O)[C@H](C)O1 [Doxorubicin]; conditions: max 1 µM
Outline: as §1

AZD5153 = compound: COc1nnc2ccc(N3CCC(c4ccc(OCCN5CCN(C)C(=O)[C@H]5C)cc4)CC3)nn12 [AZD5153]; conditions: max 1 µM
Outline: as §1

Lapatinib = compound: CS(=O)(=O)CCNCc1ccc(-c2ccc3ncnc(Nc4ccc(OCc5cccc(F)c5)c(Cl)c4)c3c2)o1 [Lapatinib]; conditions: max 10 µM
Outline: as §1

AZD8186 = compound: C[C@@H](Nc1cc(F)cc(F)c1)c1cc(C(=O)N(C)C)cc2c(=O)cc(N3CCOCC3)oc12 [AZD8186]; conditions: max 3 µM
Outline: as §1

Crizotinib = compound: C[C@@H](Oc1cc(-c2cnn(C3CCNCC3)c2)cnc1N)c1c(Cl)ccc(F)c1Cl [Crizotinib]; conditions: max 10 µM
Outline: as §1

Savolitinib = compound: C[C@@H](c1ccc2nccn2c1)n1nnc2ncc(-c3cnn(C)c3)nc21 [Savolitinib]; conditions: max 1 µM
Outline: as §1

AZD6738 = compound: C[C@@H]1COCCN1C2=NC(=NC(=C2)C3(CC3)[S@](=N)(=O)C)C4=C5C=CNC5=NC=C4 [AZD6738]; conditions: max 10 µM
Outline: as §1

AZD5991 = compound: Cc1c2c(nn1C)CSCc1cc(n(C)n1)CSc1cc(c3ccccc3c1)OCCCc1c(C(=O)O)n(C)c3c-2c(Cl)ccc13 [AZD5991]; conditions: max 1 µM
Outline: as §1

AZD7648 = compound: Cc1cc2ncnn2cc1Nc1ncc2c(n1)n(C1CCOCC1)c(=O)n2C [AZD7648]; conditions: max 10 µM
Outline: as §1

Taselisib = compound: Cc1nc(-c2cn3c(n2)-c2ccc(-c4cnn(C(C)(C)C(N)=O)c4)cc2OCC3)n(C(C)C)n1 [Taselisib]; conditions: max 10 µM
Outline: as §1

Selumetinib = compound: Cn1cnc2c(F)c(Nc3ccc(Br)cc3Cl)c(C(=O)NOCCO)cc21 [Selumetinib]; conditions: max 10 µM
Outline: as §1

Olaparib = compound: O=C(c1cc(Cc2n[nH]c(=O)c3ccccc23)ccc1F)N1CCN(C(=O)C2CC2)CC1 [Olaparib]; conditions: max 10 µM
Outline: as §1

IGR-1 (Melanoma)
IC50, cell viability 72 h (Capivasertib): > 10000 nM
IC50, cell viability 72 h (AZD1775): > 3000 nM
IC50, cell viability 72 h (Trametinib): > 1000 nM
IC50, cell viability 72 h (Palbociclib): > 10000 nM
IC50, cell viability 72 h (AZD1390): > 300 nM
IC50, cell viability 72 h (Venetoclax): > 1000 nM
IC50, cell viability 72 h (Dasatinib): > 2000 nM
IC50, cell viability 72 h (SG3199): > 1 nM
IC50, cell viability 72 h (AZD2811): > 1000 nM
IC50, cell viability 72 h (SN-38): > 300 nM
IC50, cell viability 72 h (AZD0156): > 3000 nM
IC50, cell viability 72 h (AZD4320): > 1000 nM
IC50, cell viability 72 h (Alisertib): > 10000 nM
IC50, cell viability 72 h (Gefitinib): > 10000 nM
IC50, cell viability 72 h (Prexasertib): 617 nM
IC50, cell viability 72 h (Doxorubicin): > 1000 nM
IC50, cell viability 72 h (AZD5153): > 1000 nM
IC50, cell viability 72 h (Lapatinib): 8830 nM
IC50, cell viability 72 h (AZD8186): > 3000 nM
IC50, cell viability 72 h (Crizotinib): 6250 nM
IC50, cell viability 72 h (Savolitinib): > 1000 nM
IC50, cell viability 72 h (AZD6738): > 10000 nM
IC50, cell viability 72 h (AZD5991): > 1000 nM
IC50, cell viability 72 h (AZD7648): > 10000 nM
IC50, cell viability 72 h (Taselisib): > 10000 nM
IC50, cell viability 72 h (Selumetinib): > 10000 nM
IC50, cell viability 72 h (Olaparib): > 10000 nM

COR-L23 (Non-Small Cell Lung Carcinoma)
IC50, cell viability 72 h (Capivasertib): > 10000 nM
IC50, cell viability 72 h (AZD1775): 591 nM
IC50, cell viability 72 h (Trametinib): > 1000 nM
IC50, cell viability 72 h (Palbociclib): > 10000 nM
IC50, cell viability 72 h (AZD1390): > 300 nM
IC50, cell viability 72 h (Venetoclax): > 1000 nM
IC50, cell viability 72 h (Dasatinib): > 2000 nM
IC50, cell viability 72 h (SG3199): > 1 nM
IC50, cell viability 72 h (AZD2811): > 1000 nM
IC50, cell viability 72 h (SN-38): 131 nM
IC50, cell viability 72 h (AZD0156): > 3000 nM
IC50, cell viability 72 h (AZD4320): > 1000 nM
IC50, cell viability 72 h (Alisertib): > 10000 nM
IC50, cell viability 72 h (Gefitinib): > 10000 nM
IC50, cell viability 72 h (Prexasertib): 216 nM
IC50, cell viability 72 h (Doxorubicin): > 1000 nM
IC50, cell viability 72 h (AZD5153): > 1000 nM
IC50, cell viability 72 h (Lapatinib): > 10000 nM
IC50, cell viability 72 h (AZD8186): > 3000 nM
IC50, cell viability 72 h (Crizotinib): > 10000 nM
IC50, cell viability 72 h (Savolitinib): > 1000 nM
IC50, cell viability 72 h (AZD6738): > 10000 nM
IC50, cell viability 72 h (AZD5991): > 1000 nM
IC50, cell viability 72 h (AZD7648): > 10000 nM
IC50, cell viability 72 h (Taselisib): 5740 nM
IC50, cell viability 72 h (Selumetinib): > 10000 nM
IC50, cell viability 72 h (Olaparib): > 10000 nM

LU-99A (Non-Small Cell Lung Carcinoma)
IC50, cell viability 72 h (Capivasertib): > 10000 nM
IC50, cell viability 72 h (AZD1775): > 3000 nM
IC50, cell viability 72 h (Trametinib): 163 nM
IC50, cell viability 72 h (Palbociclib): > 10000 nM
IC50, cell viability 72 h (AZD1390): > 300 nM
IC50, cell viability 72 h (Venetoclax): > 1000 nM
IC50, cell viability 72 h (Dasatinib): 1510 nM
IC50, cell viability 72 h (SG3199): > 1 nM
IC50, cell viability 72 h (AZD2811): > 1000 nM
IC50, cell viability 72 h (SN-38): 39.7 nM
IC50, cell viability 72 h (AZD0156): > 3000 nM
IC50, cell viability 72 h (AZD4320): > 1000 nM
IC50, cell viability 72 h (Alisertib): > 10000 nM
IC50, cell viability 72 h (Gefitinib): > 10000 nM
IC50, cell viability 72 h (Prexasertib): 77.1 nM
IC50, cell viability 72 h (Doxorubicin): 577 nM
IC50, cell viability 72 h (AZD5153): > 1000 nM
IC50, cell viability 72 h (Lapatinib): > 10000 nM
IC50, cell viability 72 h (AZD8186): > 3000 nM
IC50, cell viability 72 h (Crizotinib): > 10000 nM
IC50, cell viability 72 h (Savolitinib): > 1000 nM
IC50, cell viability 72 h (AZD6738): > 10000 nM
IC50, cell viability 72 h (AZD5991): > 1000 nM
IC50, cell viability 72 h (AZD7648): > 10000 nM
IC50, cell viability 72 h (Taselisib): 3080 nM
IC50, cell viability 72 h (Selumetinib): > 10000 nM
IC50, cell viability 72 h (Olaparib): > 10000 nM
